Source: patent publication US7037905B2, “Pharmaceutical use of boronic acids and esters thereof” (Novo Nordisk A/S, priority 2002, dated 2006)

These molecules were tested against T1, HSL (Homo sapiens, UniProt Q05469) (assay: TEST 3180.2 HSL: percent inhibition at 10 μM, 3H-Triolein lipid emulsion). Details: 10 µM.
T1 sequence (Q05469 1-1076): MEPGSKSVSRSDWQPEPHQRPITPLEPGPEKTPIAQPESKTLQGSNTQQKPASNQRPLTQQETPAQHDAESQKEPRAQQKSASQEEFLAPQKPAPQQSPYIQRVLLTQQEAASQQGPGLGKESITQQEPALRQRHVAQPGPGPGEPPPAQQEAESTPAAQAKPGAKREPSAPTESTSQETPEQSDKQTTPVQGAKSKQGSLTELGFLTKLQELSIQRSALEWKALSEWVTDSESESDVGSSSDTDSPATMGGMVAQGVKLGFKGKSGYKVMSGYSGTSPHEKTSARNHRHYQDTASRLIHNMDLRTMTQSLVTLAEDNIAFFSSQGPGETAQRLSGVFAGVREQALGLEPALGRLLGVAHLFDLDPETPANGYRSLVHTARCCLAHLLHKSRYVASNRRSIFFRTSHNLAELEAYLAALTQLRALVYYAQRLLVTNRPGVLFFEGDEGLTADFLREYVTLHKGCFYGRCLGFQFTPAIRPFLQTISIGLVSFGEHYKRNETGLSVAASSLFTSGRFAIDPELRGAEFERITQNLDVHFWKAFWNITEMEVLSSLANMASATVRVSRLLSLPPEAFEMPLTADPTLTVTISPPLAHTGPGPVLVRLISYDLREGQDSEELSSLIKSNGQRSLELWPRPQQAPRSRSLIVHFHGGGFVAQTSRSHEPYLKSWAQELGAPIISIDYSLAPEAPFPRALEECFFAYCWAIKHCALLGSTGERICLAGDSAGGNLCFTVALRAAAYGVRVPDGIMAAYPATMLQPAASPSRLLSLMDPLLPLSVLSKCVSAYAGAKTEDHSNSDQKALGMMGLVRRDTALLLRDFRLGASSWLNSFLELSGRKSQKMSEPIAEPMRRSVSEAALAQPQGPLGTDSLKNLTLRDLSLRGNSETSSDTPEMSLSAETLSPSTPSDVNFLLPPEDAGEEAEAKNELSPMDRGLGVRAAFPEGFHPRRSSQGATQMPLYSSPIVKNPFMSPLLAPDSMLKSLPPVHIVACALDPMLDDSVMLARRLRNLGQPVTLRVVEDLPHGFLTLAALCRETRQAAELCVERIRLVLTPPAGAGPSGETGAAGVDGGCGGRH
Assay type: biochemical

Molecule	TEST 3180.2 HSL Activity (%)
3-Fluoro-4-phenylboronic acid [Example 72]	97%

Same assay, conditions: 10 μM concentration; percent activity relative to an un-inhibited sample; 30 min preincubation, 30 min reaction at 25° C.

Molecule	TEST 3180.2 HSL Activity (%)
CC1(C)OB(c2csc([N+](=O)[O-])c2)OC1(C)C [Example 82, 4′-(4,4,5,5-TETRAMETHYL-1,3,2-DIOXABOROLAN-2-YL)2-nitrothiophene]	96%
COC1OC2COB(c3ccccc3)OC2C(O)C1O (stereo not shown) [Example 78, 6-Methoxy-2-phenyl-hexahydro-pyrano[3,2-a][1,3,2]dioxaborinine-7,8-diol]	82%
CC1(C)OB(c2ccsc2[Si](C)(C)C)OC1(C)C [Example 81, 3′-(4,4,5,5-TETRAMETHYL-1,3,2-DIOXABOROLAN-2-YL)-2-trimethylsilylthiophen]	85%
OB(O)c1ccc(OCc2ccccc2)c(F)c1 [Example 62, 3-FLUORO-4-BENZYLOXYPHENYL)BORONIC ACID]	93%

Same assay, conditions: 10 μM concentration; percent activity relative to an un-inhibited sample; 30 min preincubation, 30 min reaction at 25° C.; read-out: TEST 3180.2 HSL Activity (%)

Molecule	activity at 10 µM
c1ccc2c(c1)OB(c1ccsc1)O2 [Example 85, 2-THIEN-3-YL-1,3,2-BENZODIOXABOROLE]	89%
CC1(C)COB(c2ccccc2C#N)OC1 [Example 39, 2-(5,5-Dimethyl-[1,3,2]dioxaborinan-2-yl)-benzonitrile]	97%
N#Cc1ccc(B(O)O)s1 [Example 95, 5-Cyanothiophene-2-boronic acid]	49%
OB(O)c1ccc(Br)c(F)c1F [Example 71, 2,3-Difluoro-4-bromophenylboronic acid]	61%
OB(O)c1cc2ccccc2o1 [Example 91, BENZO[B]FURAN-2-BORONIC ACID]	57%
CCCCCC1COB(c2ccc(C(=O)O)c(F)c2)OC1 [Example 79, 2-Fluoro-4-(5-pentyl-[1,3,2]dioxaborinan-2-yl)-benzoic acid]	100%
OB(O)c1ccc(F)c(Cl)c1 [Example 58, 3-Chloro-4-fluorophenylboronic acid]	35%
OB(O)c1cccc(-c2ccccc2)c1 [Example 46, 3-phenylphenylboronic acid]	96%
OB(O)c1cccc(F)c1F [Example 66, 2,3-Difluorophenylboronic acid]	55%
OB(O)c1ccc(Cl)s1 [Example 94, 5-Chlorothiophene-2-boronic acid]	17%
CC1(C)COB(c2ccccc2F)OC1 [Example 40, 2-(2-Fluoro-phenyl)-5,5-dimethyl-[1,3,2]dioxaborinane]	68%
OB(O)c1cc(Cl)cc(Cl)c1Cl [Example 64, 2,3,5-Trichlorophenylboronic acid]	76%
OB(O)c1ccco1 [Example 93, Furan-2-boronic acid]	89%
OB(O)c1cc(Cl)cc(Cl)c1 [Example 57, 3,5-Dichlorophenylboronic acid]	46%
OB(O)c1cc(F)ccc1F [Example 67, 2,5-Difluorophenylboronic acid]	34%
OB(O)c1ccc(F)cc1 [Example 47, 4-fluorophenylboronic acid]	65%
COc1ccc(Cl)cc1B(O)O [Example 43, 5-CHLORO-2-METHOXYPHENYLBORONIC ACID]	36%
CC(=O)Nc1ccc(B2OC(C)(C)C(C)(C)O2)cc1 [Example 68, 4′-(4,4,5,5-TETRAMETHYL-1,3,2-DIOXABOROLAN-2-YL)ACETANILIDE]	86%
OB(O)c1cc2ccccc2s1 [Example 92, Benzo[B]thiophene-2-boronic acid]	53%
OB(O)c1sccc1Br [Example 98, 3-Bromothiophene-2-boronic acid]	84%
O=Cc1sccc1B(O)O [Example 84, 2-FORMYL-3-THIOPHENEBORONIC ACID]	92%
OB(O)c1cc(F)cc(F)c1 [Example 59, 3,5-Difluorophenylboronic acid]	25%
OB(O)c1cccc(Cl)c1Cl [Example 70, 2,3-Dichlorophenylboronic acid]	66%
OB(O)c1cc(C(F)(F)F)cc(C(F)(F)F)c1 [Example 56, 3,5-Bis(Trifluoromethyl)phenylboronic acid]	89%
OB(O)c1ccccc1Br [Example 48, 2-Bromophenylboronic acid]	81%
Cc1cccc(B(O)O)c1 [Example 51, 3-Methylphenylboronic acid]	64%

Molecule	activity at 10 µM
COc1ccc(F)cc1B(O)O [Example 73, 2-Methoxy5-fluorophenylboronic acid]	62%
CC1(C)COB(c2ccccc2Cl)OC1 [Example 38, 2-(2-chloroPHENYL)-5,5-DIMETHYL-1,3,2-DIOXABORINANE]	89%
OB(O)c1ccc(OCc2ccccc2)cc1 [Example 33, 4-Benzyloxyphenylboronic acid]	85%
OB(O)c1ccccc1Cl [Example 52, 2-Chlorophenylboronic acid]	86%
OB(O)c1c(Cl)cccc1Cl [Example 50, 2,6-Dichlorophenylboronic acid]	88%
OB(O)c1cc(F)c(F)c(F)c1 [Example 63, 3,4,5-Trifluorophenylboronic acid]	26%
OB(O)c1cc(Br)cc(Br)c1 [Example 44, 3,5-Dibromophenylboronic acid]	71%
Cc1csc(B(O)O)c1 [Example 88, 4-METHYLTHIOPHENE-2-BORONIC ACID]	49%
CCOc1cccc(B(O)O)c1 [Example 45, 3-Ethoxyphenylboronic acid]	90%
OB(O)c1cc(Cl)ccc1Cl [Example 65, 2,5-Dichlorophenylboronic acid]	55%
OB(O)c1cccc(F)c1 [Example 60, 3-Fluorophenylboronic acid]	47%
CC1(C)COB(c2ccc(Br)cc2)OC1 [Example 37, 2-(4-BROMOPHENYL)-5,5-DIMETHYL-1,3,2-DIOXABORINANE]	83%
Cc1ccc(B(O)O)o1 [Example 89, 5-METHYLFURAN-2-BORONIC ACID]	87%
CC1(C)COB(c2cc(F)cc(F)c2)OC1 [Example 35, 2-(3,5-DIFLUOROPHENYL)-5,5-DIMETHYL-1,3,2-DIOXABORINANE]	38%
OB(O)c1cccs1 [Example 97, Thiophene-2-boronic acid]	66%
OB(O)c1cccc(Cl)c1 [Example 53, 3-Chlorophenylboronic acid]	34%
Ic1cccc(OCC2COB(c3ccccc3)O2)c1 (stereo not shown) [Example 80, 4-(3-Iodo-phenoxymethyl)-2-phenyl-[1,3,2]dioxaborolane]	80%
CCCCCc1ccc(B(O)O)c(F)c1F [Example 61, 2,3-DIFLUORO-4-PENTYLPHENYLBORONIC ACID]	85%
Cc1ccc(B(O)O)s1 [Example 90, 5-Methylthiophene-2-boronic acid]	48%
OB(O)c1ccc(F)c(F)c1 [Example 69, 3,4-Difluorophenylboronic acid]	45%
OB(O)c1cccc(C(F)(F)F)c1 [Example 55, 3-Trifluoromethylphenylboronic acid]	21%
OB(O)c1csc2ccccc12 [Example 83, 1-BENZOTHIOPHEN-3-YLBORONIC ACID]	76%
CC(=O)c1ccc(B(O)O)s1 [Example 96, 5-Acetylthiophene-2-boronic acid]	68%
CCOC(=O)c1ccccc1B1OCC(C)(C)CO1 [Example 42, 2-(5,5-Dimethyl-[1,3,2]dioxaborinan-2-yl)-benzoic acid ethyl ester]	93%
OB(O)c1cccc(Br)c1 [Example 49, 3-Bromophenylboronic acid]	33%
OB(O)c1cccc(OC(F)(F)F)c1 [Example 54, 3-(TRIFLUOROMETHOXY)BENZENEBORONIC ACID]	27%

Same assay, conditions: read-out: TEST 3180.2 HSL Activity (%)

Molecule	activity at 10 µM
Cc1cc(B2OCCCO2)sc1C=O [Example 87, 2-(2-FORMYL-3-METHYLTHIEN-5-YL)-1,3,2-DIOXABORINANE]	75%
